Measurements: patent publication US9089133B2, “Insecticide for agricultural or horticultural use and method of use thereof” (MITSUI CHEMICALS, INC., priority 2003, dated 2015)

Tests used:
[1] = test system: Diamondback Moth (Plutella xylostella); assay: Insecticidal test for diamondback moth (cabbage leaf dip); format: in vivo; settings: foliar, 72 h, cabbage leaf immersed 30 seconds, 2nd-instar larvae, 25° C., three days after
Description: Insecticidal Test for Diamondback Moth (Plutella xylostella)
(§1) A cabbage leaf pieces was immersed in a solution prepared by diluting a test compound to a predetermined concentration for 30 seconds, and then dried in air. Then, the leaf piece was placed in a polyethylene cup of 7 cm-size in which 2nd-instar larvae of […] were placed. The cup was allowed to stand in a thermostatic chamber at 25° C. Three days after, the numbers of living and dead larvae were counted. The test was carried out in two replications each containing five larvae.

[2] = test system: Common Cutworm (Spodoptera litura); assay: Insecticidal test for common cutworm (cabbage leaf dip); format: in vivo; settings: foliar, 72 h, cabbage leaf immersed 30 seconds, 2nd-instar larvae, 25° C., three days after
Description: Insecticidal Test for Common Cutworm (Spodoptera litura)
as §1, with “cabbage leaf piece was immersed” for “cabbage leaf pieces was immersed”, “Then, the cabbage leaf piece” for “Then, the leaf piece”

## O=C(Nc1cccc(C(=O)Nc2ccc(C(F)(F)F)cc2C(F)(F)F)c1)OCC(F)(F)C(F)(F)F [Compound No. 250, N-(2,4-bistrifluoromethylphenyl) 3-[(2,2,3,3,3-pentafluoro-n-propyloxy)carbonylamino]benzamide]
[1]
  mortality at 1000 ppm: ≥ 70%
[2]
  mortality at 1000 ppm: ≥ 70%
